Measured values taken from patent US20190185518A9, “WARHEAD-CONTAINING PEPTIDOMIMETIC MACROCYCLES AS MODULATORS OF BFL-1” (AILERON Therapeutics, Inc., priority 2017, published 2019).
Positions of bridges follow the written chain, without caps; N, C: chain ends. Non-standard residues stand in square brackets, D forms with d. Residues, ends and D or L forms follow the SMILES beside them. Phe(4-F) = N[C@@H](Cc1ccc(F)cc1)C(=O)O; R8 = C=CCCCCCC[C@@](C)(N)C(=O)O; S5 = C=CCCC[C@](C)(N)C(=O)O

Molecular target: Mcl-1 (Homo sapiens, UniProt Q07820)
Sequence (Q07820 whole entry, species assumed): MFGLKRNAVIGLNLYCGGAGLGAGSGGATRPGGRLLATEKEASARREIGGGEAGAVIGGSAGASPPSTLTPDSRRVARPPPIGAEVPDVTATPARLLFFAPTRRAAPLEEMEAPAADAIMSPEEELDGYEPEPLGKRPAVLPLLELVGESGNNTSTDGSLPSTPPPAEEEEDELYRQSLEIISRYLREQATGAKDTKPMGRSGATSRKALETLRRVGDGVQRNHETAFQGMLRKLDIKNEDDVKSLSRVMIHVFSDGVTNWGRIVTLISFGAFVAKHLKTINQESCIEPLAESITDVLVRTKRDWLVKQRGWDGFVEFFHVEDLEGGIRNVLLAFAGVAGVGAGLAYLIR
Assay: Ki determination for Mcl-1 (BCL-2 family binding spectrum)
Details: read-out: Ki MCL-1
Excerpt: To assess the binding and affinity of compounds that antagonize the interaction between a peptide and an acceptor protein, a fluorescence polarization assay (FPA) utilizing a fluoresceinated peptidomimetic macrocycle derived from a peptidomimetic precursor sequence is used, for example. The FPA technique measures the molecular orientation and mobility using polarized light and fluorescent tracer. […] A compound that antagonizes the interaction between the fluoresceinated peptidomimetic macrocycle and an acceptor protein will be detected in a competitive binding FPA experiment.
Antagonist binding activity is measured, for example, by fluorescence polarization on a luminescence spectrophotometer (e.g. Perkin-Elmer LS50B). Kd values may be determined by nonlinear regression analysis using, for example, Graphpad Prism software (GraphPad Software, Inc., San Diego, Calif.).

Ki | SMILES
4.6 nM | CC[C@H](C)[C@H](NC(C)=O)C(=O)N[C@@H](Cc1c[nH]c2ccccc12)C(=O)N[C@H](C(=O)N[C@@H](C)C(=O)N[C@@H](C)C(=O)N[C@@H](C)C(=O)N[C@@H](CC(C)C)C(=O)N[C@@H](CCCNC(=N)N)C(=O)N[C@]1(C)CCCCCCC=CCCC[C@@](C)(C(=O)N[C@@H](Cc2ccc(O)cc2)C(=O)N[C@@H](Cc2ccc(O)cc2)C(=O)N[C@@H](CCC(N)=O)C(N)=O)NC(=O)[C@H](CC(N)=O)NC(=O)[C@H](Cc2ccccc2)NC(=O)[C@H](C)NC(=O)[C@H](CC(=O)O)NC(=O)CNC(=O)[C@H]([C@@H](C)CC)NC1=O)[C@@H](C)CC [compound 1762] (Ac-IWIAAALR[R8]IGDAFN[S5]YYQ-NH2; staple 9-16)
10.2 nM | CC[C@H](C)[C@H](NC(C)=O)C(=O)N[C@@H](Cc1ccccc1)C(=O)N[C@H](C(=O)N[C@@H](C)C(=O)N[C@@H](C)C(=O)N[C@@H](C)C(=O)N[C@@H](CC(C)C)C(=O)N[C@@H](CCCNC(=N)N)C(=O)N[C@]1(C)CCCCCCC=CCCC[C@@](C)(C(=O)N[C@@H](Cc2ccc(O)cc2)C(=O)N[C@@H](Cc2ccc(O)cc2)C(=O)N[C@@H](C)C(N)=O)NC(=O)[C@H](CC(N)=O)NC(=O)[C@H](Cc2ccccc2)NC(=O)[C@H](C)NC(=O)[C@H](CC(=O)O)NC(=O)CNC(=O)[C@H]([C@@H](C)CC)NC1=O)[C@@H](C)CC [compound 1731] (Ac-IFIAAALR[R8]IGDAFN[S5]YYA-NH2; staple 9-16)
2.2 nM | CC[C@H](C)[C@H](NC(C)=O)C(=O)N[C@@H](Cc1c[nH]c2ccccc12)C(=O)N[C@H](C(=O)N[C@@H](C)C(=O)N[C@@H](C)C(=O)N[C@@H](C)C(=O)N[C@@H](CC(C)C)C(=O)N[C@@H](CCCNC(=N)N)C(=O)N[C@]1(C)CCCCCCC=CCCC[C@@](C)(C(=O)N[C@@H](Cc2ccc(O)cc2)C(=O)N[C@@H](Cc2ccc(O)cc2)C(=O)N[C@@H](CC(=O)O)C(N)=O)NC(=O)[C@H](CC(N)=O)NC(=O)[C@H](Cc2ccccc2)NC(=O)[C@H](C)NC(=O)[C@H](CC(=O)O)NC(=O)CNC(=O)[C@H]([C@@H](C)CC)NC1=O)[C@@H](C)CC [compound 1760] (Ac-IWIAAALR[R8]IGDAFN[S5]YYD-NH2; staple 9-16)
10.2 nM | CC[C@H](C)[C@H](NC(C)=O)C(=O)N[C@@H](CC(C)C)C(=O)N[C@H](C(=O)N[C@@H](C)C(=O)N[C@@H](C)C(=O)N[C@@H](C)C(=O)N[C@@H](CC(C)C)C(=O)N[C@@H](CCCNC(=N)N)C(=O)N[C@]1(C)CCCCCCC=CCCC[C@@](C)(C(=O)N[C@@H](Cc2ccc(O)cc2)C(=O)N[C@@H](Cc2ccc(O)cc2)C(=O)N[C@@H](C)C(N)=O)NC(=O)[C@H](CC(N)=O)NC(=O)[C@H](Cc2ccccc2)NC(=O)[C@H](C)NC(=O)[C@H](CC(=O)O)NC(=O)CNC(=O)[C@H]([C@@H](C)CC)NC1=O)[C@@H](C)CC [compound 1730] (Ac-ILIAAALR[R8]IGDAFN[S5]YYA-NH2; staple 9-16)
6.6 nM | CC[C@H](C)[C@H](NC(C)=O)C(=O)N[C@@H](Cc1c[nH]cn1)C(=O)N[C@H](C(=O)N[C@@H](C)C(=O)N[C@@H](C)C(=O)N[C@@H](C)C(=O)N[C@@H](CC(C)C)C(=O)N[C@@H](CCCNC(=N)N)C(=O)N[C@]1(C)CCCCCCC=CCCC[C@@](C)(C(=O)N[C@@H](Cc2ccc(O)cc2)C(=O)N[C@@H](Cc2ccc(O)cc2)C(=O)N[C@@H](C)C(N)=O)NC(=O)[C@H](CC(N)=O)NC(=O)[C@H](Cc2ccccc2)NC(=O)[C@H](C)NC(=O)[C@H](CC(=O)O)NC(=O)CNC(=O)[C@H]([C@@H](C)CC)NC1=O)[C@@H](C)CC [compound 1727] (Ac-IHIAAALR[R8]IGDAFN[S5]YYA-NH2; staple 9-16)
19.7 nM | CC[C@H](C)[C@H](NC(C)=O)C(=O)N[C@@H](Cc1c[nH]c2ccccc12)C(=O)N[C@H](C(=O)N[C@@H](CC(C)C)C(=O)N[C@@H](C)C(=O)N[C@@H](C)C(=O)N[C@@H](CC(C)C)C(=O)N[C@@H](CCCNC(=N)N)C(=O)N[C@]1(C)CCCCCCC=CCCC[C@@](C)(C(=O)N[C@@H](Cc2ccc(O)cc2)C(=O)N[C@@H](Cc2ccc(O)cc2)C(=O)N[C@@H](C)C(N)=O)NC(=O)[C@H](CC(N)=O)NC(=O)[C@H](Cc2ccccc2)NC(=O)[C@H](C)NC(=O)[C@H](CC(=O)O)NC(=O)CNC(=O)[C@H]([C@@H](C)CC)NC1=O)[C@@H](C)CC [compound 1734] (Ac-IWILAALR[R8]IGDAFN[S5]YYA-NH2; staple 9-16)
10.6 nM | CC[C@H](C)[C@H](NC(C)=O)C(=O)N[C@@H](Cc1c[nH]c2ccccc12)C(=O)N[C@H](C(=O)N[C@@H](C)C(=O)N[C@@H](C)C(=O)N[C@@H](C)C(=O)N[C@@H](CC(C)C)C(=O)N[C@@H](CCCNC(=N)N)C(=O)N[C@]1(C)CCCCCCC=CCCC[C@@](C)(C(=O)N[C@@H](Cc2ccc(O)cc2)C(=O)N[C@@H](Cc2ccc(O)cc2)C(=O)N[C@@H](Cc2c[nH]cn2)C(N)=O)NC(=O)[C@H](CC(N)=O)NC(=O)[C@H](Cc2ccccc2)NC(=O)[C@H](C)NC(=O)[C@H](CC(=O)O)NC(=O)CNC(=O)[C@H]([C@@H](C)CC)NC1=O)[C@@H](C)CC [compound 1764] (Ac-IWIAAALR[R8]IGDAFN[S5]YYH-NH2; staple 9-16)
3.8 nM | CC[C@H](C)[C@H](NC(=O)[C@H](Cc1c[nH]c2ccccc12)NC(=O)[C@H](C)NC(C)=O)C(=O)N[C@@H](C)C(=O)N[C@@H](C)C(=O)N[C@@H](C)C(=O)N[C@@H](CC(C)C)C(=O)N[C@@H](CCCNC(=N)N)C(=O)N[C@]1(C)CCCCCCC=CCCC[C@@](C)(C(=O)N[C@@H](Cc2ccc(O)cc2)C(=O)N[C@@H](Cc2ccc(O)cc2)C(=O)N[C@@H](C)C(N)=O)NC(=O)[C@H](CC(N)=O)NC(=O)[C@H](Cc2ccccc2)NC(=O)[C@H](C)NC(=O)[C@H](CC(=O)O)NC(=O)CNC(=O)[C@H]([C@@H](C)CC)NC1=O [compound 1722] (Ac-AWIAAALR[R8]IGDAFN[S5]YYA-NH2; staple 9-16)

Continued, molecule first:

SMILES | Ki
CC[C@H](C)[C@H](NC(=O)[C@H](Cc1c[nH]c2ccccc12)NC(=O)[C@H](CCC(N)=O)NC(C)=O)C(=O)N[C@@H](C)C(=O)N[C@@H](C)C(=O)N[C@@H](C)C(=O)N[C@@H](CC(C)C)C(=O)N[C@@H](CCCNC(=N)N)C(=O)N[C@]1(C)CCCCCCC=CCCC[C@@](C)(C(=O)N[C@@H](Cc2ccc(O)cc2)C(=O)N[C@@H](Cc2ccc(O)cc2)C(=O)N[C@@H](C)C(N)=O)NC(=O)[C@H](CC(N)=O)NC(=O)[C@H](Cc2ccccc2)NC(=O)[C@H](C)NC(=O)[C@H](CC(=O)O)NC(=O)CNC(=O)[C@H]([C@@H](C)CC)NC1=O [compound 1721] (Ac-QWIAAALR[R8]IGDAFN[S5]YYA-NH2; staple 9-16) | 4.8 nM
CC[C@H](C)[C@H](NC(C)=O)C(=O)N[C@@H](Cc1c[nH]c2ccccc12)C(=O)N[C@H](C(=O)N[C@@H](C)C(=O)N[C@@H](CCC(N)=O)C(=O)N[C@@H](C)C(=O)N[C@@H](CC(C)C)C(=O)N[C@@H](CCCNC(=N)N)C(=O)N[C@]1(C)CCCCCCC=CCCC[C@@](C)(C(=O)N[C@@H](Cc2ccc(O)cc2)C(=O)N[C@@H](Cc2ccc(F)cc2)C(=O)N[C@@H](C)C(N)=O)NC(=O)[C@H](CC(N)=O)NC(=O)[C@H](Cc2ccccc2)NC(=O)[C@H](C)NC(=O)[C@H](CC(=O)O)NC(=O)CNC(=O)[C@H]([C@@H](C)CC)NC1=O)[C@@H](C)CC [compound 1710] (Ac-IWIAQALR[R8]IGDAFN[S5]Y[Phe(4-F)]A-NH2; staple 9-16) | 4.8 nM
CC[C@H](C)[C@H](NC(C)=O)C(=O)N[C@@H](Cc1c[nH]c2ccccc12)C(=O)N[C@H](C(=O)N[C@@H](C)C(=O)N[C@@H](CCC(N)=O)C(=O)N[C@@H](C)C(=O)N[C@@H](CC(C)C)C(=O)N[C@@H](CCCNC(=N)N)C(=O)N[C@]1(C)CCCCCCC=CCCC[C@@](C)(C(=O)N[C@@H](Cc2ccc(O)cc2)C(=O)N[C@@H](Cc2ccc(O)cc2)C(=O)N[C@@H](C)C(=O)N[C@@H](CCCNC(=N)N)C(=O)N[C@@H](CCCNC(=N)N)C(N)=O)NC(=O)[C@H](CC(N)=O)NC(=O)[C@H](Cc2ccccc2)NC(=O)[C@H](CCC(=O)O)NC(=O)[C@H](CC(=O)O)NC(=O)CNC(=O)[C@H]([C@@H](C)CC)NC1=O)[C@@H](C)CC [compound 1628] (Ac-IWIAQALR[R8]IGDEFN[S5]YYARR-NH2; staple 9-16) | 10.6 nM
CC[C@H](C)[C@H](NC(=O)[C@H](Cc1c[nH]c2ccccc12)NC(=O)[C@H](Cc1c[nH]cn1)NC(C)=O)C(=O)N[C@@H](C)C(=O)N[C@@H](C)C(=O)N[C@@H](C)C(=O)N[C@@H](CC(C)C)C(=O)N[C@@H](CCCNC(=N)N)C(=O)N[C@]1(C)CCCCCCC=CCCC[C@@](C)(C(=O)N[C@@H](Cc2ccc(O)cc2)C(=O)N[C@@H](Cc2ccc(O)cc2)C(=O)N[C@@H](C)C(N)=O)NC(=O)[C@H](CC(N)=O)NC(=O)[C@H](Cc2ccccc2)NC(=O)[C@H](C)NC(=O)[C@H](CC(=O)O)NC(=O)CNC(=O)[C@H]([C@@H](C)CC)NC1=O [compound 1719] (Ac-HWIAAALR[R8]IGDAFN[S5]YYA-NH2; staple 9-16) | 3.6 nM
CC[C@H](C)[C@H](NC(=O)[C@H](Cc1c[nH]c2ccccc12)NC(=O)[C@H](CO)NC(C)=O)C(=O)N[C@@H](C)C(=O)N[C@@H](C)C(=O)N[C@@H](C)C(=O)N[C@@H](CC(C)C)C(=O)N[C@@H](CCCNC(=N)N)C(=O)N[C@]1(C)CCCCCCC=CCCC[C@@](C)(C(=O)N[C@@H](Cc2ccc(O)cc2)C(=O)N[C@@H](Cc2ccc(O)cc2)C(=O)N[C@@H](C)C(N)=O)NC(=O)[C@H](CC(N)=O)NC(=O)[C@H](Cc2ccccc2)NC(=O)[C@H](C)NC(=O)[C@H](CC(=O)O)NC(=O)CNC(=O)[C@H]([C@@H](C)CC)NC1=O [compound 1720] (Ac-SWIAAALR[R8]IGDAFN[S5]YYA-NH2; staple 9-16) | 3.9 nM
